# Molecular target: T1, full-length beta-Catenin (Uniprot ID P35222) (Homo sapiens, UniProt P35222)
# T1 construct: 10 nM full-length beta-Catenin (Uniprot ID P35222)
# T1 sequence (P35222 1-781): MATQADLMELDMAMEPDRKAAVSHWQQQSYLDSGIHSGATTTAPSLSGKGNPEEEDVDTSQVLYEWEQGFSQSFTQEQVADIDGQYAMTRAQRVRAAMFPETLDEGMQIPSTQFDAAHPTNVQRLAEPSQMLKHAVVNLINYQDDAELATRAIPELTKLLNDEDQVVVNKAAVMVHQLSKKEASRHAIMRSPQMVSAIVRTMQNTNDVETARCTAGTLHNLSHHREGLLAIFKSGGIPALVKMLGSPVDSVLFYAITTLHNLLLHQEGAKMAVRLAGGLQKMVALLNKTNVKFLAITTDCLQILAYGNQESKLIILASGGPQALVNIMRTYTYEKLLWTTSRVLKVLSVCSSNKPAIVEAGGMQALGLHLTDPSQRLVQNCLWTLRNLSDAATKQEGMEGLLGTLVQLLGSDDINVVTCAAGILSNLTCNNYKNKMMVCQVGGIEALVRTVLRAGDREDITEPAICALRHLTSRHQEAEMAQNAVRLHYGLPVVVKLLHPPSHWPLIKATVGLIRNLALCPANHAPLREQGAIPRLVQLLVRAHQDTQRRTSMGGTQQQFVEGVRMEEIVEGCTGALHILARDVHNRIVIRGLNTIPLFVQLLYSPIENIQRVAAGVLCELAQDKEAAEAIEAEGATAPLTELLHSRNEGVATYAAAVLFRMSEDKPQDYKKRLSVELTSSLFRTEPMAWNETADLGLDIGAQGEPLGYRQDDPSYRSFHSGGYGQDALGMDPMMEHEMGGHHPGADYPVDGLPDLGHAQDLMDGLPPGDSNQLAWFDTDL
# Assay: Fluorescence polarization IC50 (beta-catenin / 5FAM-TCF4 10-53 competition)
# Assay type: binding
# Details: fluorescence polarization; read-out: beta-Catenin FP IC50
row,Compound,IC50 [nM]
1,"CC(=O)N1CCC[C@]12CC=CCCCC1(CCCC=CCCCOC(=O)N3CC[C@@](C(=O)N[C@@H](Cc4cccc(Br)c4)C(=O)N[C@@H](Cc4ccccc4)C(=O)N[C@@H](CCC(N)=O)C(N)=O)(C3)NC(=O)[C@H](CC(C)C)NC(=O)[C@H](Cc3ccccc3)NC(=O)[C@H](C)NC(=O)[C@H](C)NC(=O)[C@H](Cc3cccc(C(=O)O)c3)NC(=O)[C@H](CC(=O)O)NC1=O)NC(=O)[C@H](CC(C)(C)C)NC(=O)[C@H](CC(=O)O)NC2=O (stereo partly drawn) [I-2153, Ac-PL3-Asp-Npg-B5-Asp-3COOHF-Ala-Ala-Phe-Leu-PyrS2-3BrF-Phe-Gln-NH2]",1480
2,"CC(=O)N1CCC[C@]12CCCCC1(CCCCCCOC(=O)N3CC[C@@](C(=O)N[C@@H](Cc4ccsc4)C(=O)N[C@@H](Cc4csc5ccccc45)C(=O)N[C@@H](CCC(N)=O)C(N)=O)(C3)NC(=O)[C@H](CC(C)C)NC(=O)[C@H](Cc3ccccc3)NC(=O)[C@H](C)NC(=O)[C@H](C)NC(=O)[C@H](CC(=O)O)NC(=O)[C@H](CC(=O)O)NC1=O)NC(=O)[C@H](CC(C)(C)C)NC(=O)[C@H](CC(=O)O)NC2=O (stereo partly drawn) [I-2160, Ac-PL3-Asp-Npg-B3-Asp-Asp-Ala-Ala-Phe-Leu-PyrS2-3Thi-BztA-Gln-NH2]",1240
3,"CC(=O)N1CCC[C@]12CC=CCCCC1(CCCC=CCCCOC(=O)N3CC[C@@](C(=O)N[C@@H](Cc4ccccc4)C(=O)N[C@@H](Cc4csc5ccccc45)C(=O)N[C@@H](CCO)C(N)=O)(C3)NC(=O)[C@H](CC(C)C)NC(=O)[C@H](Cc3ccccc3)NC(=O)[C@H](C)NC(=O)[C@H](CCCCNC(C)C)NC(=O)[C@H](CCC(N)=O)NC(=O)[C@H](CC(=O)O)NC1=O)NC(=O)[C@H](CC1CCCCC1)NC(=O)[C@H](CC(N)=O)NC2=O (stereo partly drawn) [I-2165, Ac-PL3-Asn-Cha-B5-Asp-Gln-iPrLys-Ala-Phe-Leu-PyrS2-Phe-BztA-Hse-NH2]",441
4,"CC(=O)N1CCC[C@]12CC=CCCCC1(CCCC=CCCCOC(=O)N3CC[C@@](C(=O)N[C@@H](Cc4ccsc4)C(=O)N[C@@H](Cc4c[nH]c5cccc(Cl)c45)C(=O)N[C@@H](CCC(N)=O)C(N)=O)(C3)NC(=O)[C@H](CC(N)=O)NC(=O)[C@H](Cc3ccccc3)NC(=O)[C@H](C)NC(=O)[C@H](C)NC(=O)[C@H](CC(=O)O)NC(=O)[C@H](CC(=O)O)NC1=O)NC(=O)[C@H](CC(C)(C)C)NC(=O)[C@H](CC(=O)O)NC2=O (stereo partly drawn) [I-2176, Ac-PL3-Asp-Npg-B5-Asp-Asp-Ala-Ala-Phe-Asn-PyrS2-3Thi-4C1W-Gln-NH2]",87
5,"CC(=O)N1CCC[C@]12CC=CCCCC1(CCCC=CCCCOC(=O)N3CC[C@@](C(=O)N[C@@H](Cc4ccsc4)C(=O)N[C@@H](Cc4c[nH]c5cccc(Cl)c45)C(=O)N[C@@H](CCC(N)=O)C(N)=O)(C3)NC(=O)[C@H](CC(C)C)NC(=O)[C@H](Cc3ccccc3)NC(=O)[C@H](C)NC(=O)[C@H](C)NC(=O)[C@H](CC(=O)O)NC(=O)[C@H](CC(=O)O)NC1=O)NC(=O)[C@H](CC(C)(C)C)NC(=O)[C@H](CC(=O)O)NC2=O (stereo partly drawn) [I-2177, Ac-PL3-Asp-Npg-B5-Asp-Asp-Ala-Ala-Phe-Leu-PyrS2-3Thi-4C1W-Gln-NH2]",253
6,"CC(=O)N1CCC[C@]12CC=CCCCC1(CCCC=CCCCOC(=O)N3CC[C@@](C(=O)N[C@@H](Cc4ccsc4)C(=O)N[C@@H](Cc4c[nH]c5cccc(F)c45)C(=O)N[C@@H](CCC(N)=O)C(N)=O)(C3)NC(=O)[C@H](CC(N)=O)NC(=O)[C@H](Cc3ccccc3)NC(=O)[C@H](C)NC(=O)[C@H](C)NC(=O)[C@H](CC(=O)O)NC(=O)[C@H](CC(=O)O)NC1=O)NC(=O)[C@H](CC(C)(C)C)NC(=O)[C@H](CC(=O)O)NC2=O (stereo partly drawn) [I-2178, Ac-PL3-Asp-Npg-B5-Asp-Asp-Ala-Ala-Phe-Asn-PyrS2-3Thi-4FW-Gln-NH2]",42

# Continued by falling IC50, values first:
row,IC50 [nM],Compound
1,9550,"CC(=O)N1CCC[C@]12CC=CCCCC1(CCCC=CCCCOC(=O)N3CC[C@@](C(=O)N[C@@H](Cc4cccc(Br)c4)C(=O)N[C@@H](CC4CCC4)C(=O)N[C@@H](CCC(N)=O)C(N)=O)(C3)NC(=O)[C@H](CC(C)C)NC(=O)[C@H](Cc3ccccc3)NC(=O)[C@H](C)NC(=O)[C@H](C)NC(=O)[C@H](Cc3cccc(C(=O)O)c3)NC(=O)[C@H](CC(=O)O)NC1=O)NC(=O)[C@H](CC(C)(C)C)NC(=O)[C@H](CC(=O)O)NC2=O (stereo partly drawn) [I-2154, Ac-PL3-Asp-Npg-B5-Asp-3COOHF-Ala-Ala-Phe-Leu-PyrS2-3BrF-Cba-Gln-NH2]"
2,3720,"CC(=O)N1CCC[C@]12CC=CCCCC1(CCCC=CCCCOC(=O)N3CC[C@@](C(=O)N[C@@H](Cc4cccc(C(N)=O)c4)C(=O)N[C@@H](Cc4csc5ccccc45)C(=O)N[C@@H](CCC(N)=O)C(N)=O)(C3)NC(=O)[C@H](CC(C)C)NC(=O)[C@H](Cc3ccccc3)NC(=O)[C@H](C)NC(=O)[C@H](CCCCNC(C)C)NC(=O)[C@H](CCC(N)=O)NC(=O)[C@H](CC(=O)O)NC1=O)NC(=O)[C@H](CC1CCCCC1)NC(=O)[C@H](CC(N)=O)NC2=O (stereo partly drawn) [I-2163, Ac-PL3-Asn-Cha-B5-Asp-Gln-iPrLys-Ala-Phe-Leu-PyrS2-3cbmf-BztA-Gln-NH2]"
3,3080,"CC(=O)N1CCC[C@]12CC=CCCCC1(CCCC=CCCCOC(=O)N3CC[C@@](C(=O)N[C@@H](Cc4cccc(Br)c4)C(=O)N[C@@H](Cc4ccsc4)C(=O)N[C@@H](CCC(N)=O)C(N)=O)(C3)NC(=O)[C@H](CC(C)C)NC(=O)[C@H](Cc3ccccc3)NC(=O)[C@H](C)NC(=O)[C@H](C)NC(=O)[C@H](Cc3cccc(C(=O)O)c3)NC(=O)[C@H](CC(=O)O)NC1=O)NC(=O)[C@H](CC(C)(C)C)NC(=O)[C@H](CC(=O)O)NC2=O (stereo partly drawn) [I-2152, Ac-PL3-Asp-Npg-B5-Asp-3COOHF-Ala-Ala-Phe-Leu-PyrS2-3BrF-3Thi-Gln-NH2]"
4,3070,"CC(=O)N1CCC[C@]12CC=CCCCC1(CCCC=CCCCOC(=O)N3CC[C@@](C(=O)N[C@@H](Cc4ccccc4)C(=O)N[C@@H](Cc4csc5ccccc45)C(=O)N[C@@H](CCO)C(N)=O)(C3)NC(=O)[C@H](CC(N)=O)NC(=O)[C@H](Cc3ccccc3C(N)=O)NC(=O)[C@H](C)NC(=O)[C@H](CCCCNC(C)C)NC(=O)[C@H](CCC(N)=O)NC(=O)[C@H](CC(=O)O)NC1=O)NC(=O)[C@H](CC1CCCCC1)NC(=O)[C@H](CC(N)=O)NC2=O (stereo partly drawn) [I-2173, Ac-PL3-Asn-Cha-B5-Asp-Gln-iPrLys-Ala-2cbmf-Asn-PyrS2-Phe-BztA-Hse-NH2]"
5,1590,"CC(=O)N1CCC[C@]12CC=CCCCC1(CCCC=CCCCOC(=O)N3CC[C@@](C(=O)N[C@@H](Cc4cccc(C(N)=O)c4)C(=O)N[C@@H](Cc4csc5ccccc45)C(=O)N[C@@H](CCO)C(N)=O)(C3)NC(=O)[C@H](CC(C)C)NC(=O)[C@H](Cc3ccccc3)NC(=O)[C@H](C)NC(=O)[C@H](CCCCNC(C)C)NC(=O)[C@H](CCC(N)=O)NC(=O)[C@H](CC(=O)O)NC1=O)NC(=O)[C@H](CC1CCCCC1)NC(=O)[C@H](CC(N)=O)NC2=O (stereo partly drawn) [I-2166, Ac-PL3-Asn-Cha-B5-Asp-Gln-iPrLys-Ala-Phe-Leu-PyrS2-3cbmf-BztA-Hse-NH2]"
6,1180,"CC(=O)N1CCC[C@]12CC=CCCCC1(CCCC=CCCCOC(=O)N3CC[C@@](C(=O)N[C@@H](Cc4cccc(C(N)=O)c4)C(=O)N[C@@H](Cc4csc5ccccc45)C(=O)N[C@@H](CCC(N)=O)C(N)=O)(C3)NC(=O)[C@H](CC(N)=O)NC(=O)[C@H](Cc3ccccc3)NC(=O)[C@H](C)NC(=O)[C@H](CCCCNC(C)C)NC(=O)[C@H](CCC(N)=O)NC(=O)[C@H](CC(=O)O)NC1=O)NC(=O)[C@H](CC1CCCCC1)NC(=O)[C@H](CC(N)=O)NC2=O (stereo partly drawn) [I-2164, Ac-PL3-Asn-Cha-B5-Asp-Gln-iPrLys-Ala-Phe-Asn-PyrS2-3cbmf-BztA-Gln-NH2]"
7,141,"CC(=O)N1CCC[C@]12CC=CCC1(CC=CCCCCOC(=O)N3CC[C@@](C(=O)N[C@@H](Cc4ccsc4)C(=O)N[C@@H](Cc4csc5ccccc45)C(=O)N[C@@H](CCC(N)=O)C(N)=O)(C3)NC(=O)[C@H](CC(C)C)NC(=O)[C@H](Cc3ccccc3)NC(=O)[C@H](C)NC(=O)[C@H](C)NC(=O)[C@H](CC(=O)O)NC(=O)[C@H](CC(=O)O)NC1=O)NC(=O)[C@H](CC(C)(C)C)NC(=O)[C@H](CC(=O)O)NC2=O (stereo partly drawn) [I-2157, Ac-PL3-Asp-Npg-B3-Asp-Asp-Ala-Ala-Phe-Leu-PyrS3-3Thi-BztA-Gln-NH2]"
8,67,"CC(=O)N1CCC[C@]12CC=CCCCC1(CCCC=CCCCOC(=O)N3CC[C@@](C(=O)N[C@@H](Cc4ccsc4)C(=O)N[C@@H](Cc4c[nH]c5cccc(F)c45)C(=O)N[C@@H](CCC(N)=O)C(N)=O)(C3)NC(=O)[C@H](CC(C)C)NC(=O)[C@H](Cc3ccccc3)NC(=O)[C@H](C)NC(=O)[C@H](C)NC(=O)[C@H](CC(=O)O)NC(=O)[C@H](CC(=O)O)NC1=O)NC(=O)[C@H](CC(C)(C)C)NC(=O)[C@H](CC(=O)O)NC2=O (stereo partly drawn) [I-2179, Ac-PL3-Asp-Npg-B5-Asp-Asp-Ala-Ala-Phe-Leu-PyrS2-3Thi-4FW-Gln-NH2]"
9,19,"CC(=O)N1CCC[C@]12CC=CCCCC1(CCCC=CCCCOC(=O)N3CC[C@@](C(=O)N[C@@H](Cc4ccsc4)C(=O)N[C@@H](Cc4c[nH]c5ccccc45)C(=O)N[C@@H](CCC(N)=O)C(N)=O)(C3)NC(=O)[C@H](CC(N)=O)NC(=O)[C@H](Cc3ccccc3)NC(=O)[C@H](C)NC(=O)[C@H](C)NC(=O)[C@H](CC(=O)O)NC(=O)[C@H](CC(=O)O)NC1=O)NC(=O)[C@H](CC(C)(C)C)NC(=O)[C@H](CC(=O)O)NC2=O (stereo partly drawn) [I-2175, Ac-PL3-Asp-Npg-B5-Asp-Asp-Ala-Ala-Phe-Asn-PyrS2-3Thi-Trp-Gln-NH2]"

# From patent publication US20240116985A1, “STAPLED PEPTIDES AND METHODS THEREOF” (priority 2020, published 2024)
